Details: 101.33 kPa, Liquid; for mass density: Vibrating tube method; for viscosity: Capillary tube (Ostwald / Ubbelohde) method

CCCN.CCCN.O=S(=O)([N-]S(=O)(=O)C(F)(F)F)C(F)(F)F.[Ag+]
Details	mass density [kg/m3]	viscosity [mPa·s]
293 K	1637.5	–
293.2 K	–	46.09
298 K	1632	–
298.1 K	–	36
303 K	1626.3	–
303.2 K	–	31.07
308.2 K	–	27.03
313 K	1614.7	–
313.2 K	–	25.28
318.3 K	–	21.28
323 K	1603.5	–
323.2 K	–	18.21
328.2 K	–	15.85
333 K	1592.3	–
333.2 K	–	14.84

— the NIST ThermoML archive (doi:10.1021/je5004669)
